Source: patent publication US10774064B2 (Cadent Therapeutics, Inc., priority 2016, dated 2020)

target: T1, small-conductance Ca2+-activated K+ channels (SK channels, subtype 2) (Homo sapiens, UniProt Q9H2S1); assay: whole-cell patch-clamp of ionic current through SK2 channels in HEK293 cells (SC100); assay type: cell-based; details: concentration that increases the basal current by 100%; HEK293 cells expressing SK2 channels
T1 construct: expressed in transfected cells; host or cells: HEK293
Outline: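 SC100, the concentration doubling basal current (a 100% increase), was taken from SK2 currents recorded by whole-cell patch-clamp in SK2-expressing HEK293 cells.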

| SC100 | Compound |
| --- | --- |
| ++ (++ means 200 nM-1000 nM) | Cc1cc(NC2CCC(F)(F)CC2)nc(-c2nc(CF)cs2)n1 [Compound 273, N-(4,4-difluorocyclohexyl)-2-(4-(fluoromethyl)thiazol-2-yl)-6-methylpyrimidin-4-amine] |
| + (+ means >1 uM) | Cc1cc(NC2CCC(F)(F)CC2)nc(-c2nc(CO)cs2)n1 [Compound 270, (2-(4-((4,4-difluorocyclohexyl)amino)-6-methylpyrimidin-2-yl)thiazol-4-yl)methanol] |
| ++ (++ means 200 nM-1000 nM) | CC(C)OC(=O)N1CC(Oc2cc(NC3CCC(F)(F)CC3)nc(-n3ccc(CF)n3)n2)C1 [Compound 296, isopropyl3-((6-((4,4-difluorocyclohexyl)amino)-2-(3-(fluoromethyl)-1H-pyrazol-1-yl)pyrimidin-4-yl)oxy)azetidine-1-carboxylate] |
| ++ (++ means 200 nM-1000 nM) | COC(=O)N1CC(Oc2cc(NC3CCC(F)(F)CC3)nc(-n3ccc(CF)n3)n2)C1 [Compound 291, methyl 3-((6-((4,4-difluorocyclohexyl)amino)-2-(3-(fluoromethyl)-1H-pyrazol-1-yl)pyrimidin-4-yl)oxy)azetidine-1-carboxylate] |
| ++ (++ means 200 nM-1000 nM) | Cc1cc(NC2CCC(F)(F)CC2)nc(-n2cc(C)c(CF)n2)n1 [Compound 258, N-(4,4-difluorocyclohexyl)-2-(3-(fluoromethyl)-4-methyl-1H-pyrazol-1-yl)-6-methylpyrimidin-4-amine] |
| + (+ means >1 uM) | Cc1cc(C)n(-c2nc(NC3CCC(F)(F)CC3)cc(OC(F)F)n2)n1 [Compound 209, N-(4,4-difluorocyclohexyl)-6-(difluoromethoxy)-2-(3,5-dimethyl-1H-pyrazol-1-yl)pyrimidin-4-amine] |

Continued, compound first:

| Compound | SC100 |
| --- | --- |
| Cc1cc(C)n(-c2cc(N[C@H]3CCN(C)C3=O)cc(NC3CCC(F)(F)CC3)n2)n1 (single isomer, unassigned) [Compound 138, (+)-3-((2-((4,4-difluorocyclohexyl)amino)-6-(3,5-dimethyl-1H-pyrazol-1-yl)pyridin-4-yl)amino)-1-methylpyrrolidin-2-one] | + (+ means >1 uM) |
| CC(=O)N1CCN(c2cc(NC3CCC(C(F)(F)F)CC3)nc(-n3nc(C)cc3C)n2)CC1 (centres unmarked) [Compound 149, 1-(4-(2-(3,5-dimethyl-1H-pyrazol-1-yl)-6-((4-(trifluoromethyl)cyclohexyl)amino)pyrimidin-4-yl)piperazin-1-yl)ethan-1-one] | ++ (++ means 200 nM-1000 nM) |
| COC(=O)N1CC(Oc2cc(NC3CCC(F)(F)CC3)nc(-c3nc(C(C)O)cs3)n2)C1 (centres unmarked) [Compound 344, methyl 3-((6-((4,4-difluorocyclohexyl)amino)-2-(4-(1-hydroxyethyl)thiazol-2-yl)pyrimidin-4-yl)oxy)azetidine-1-carboxylate] | + (+ means >1 uM) |
| Cc1cn(-c2nc(NC3CCC(F)(F)CC3)cc(OC3CN(C(=O)C(C)(C)C)C3)n2)nc1C(F)F [Compound 317, 1-(3-((6-((4,4-difluorocyclohexyl)amino)-2-(3-(difluoromethyl)-4-methyl-1H-pyrazol-1-yl)pyrimidin-4-yl)oxy)azetidin-1-yl)-2,2-dimethylpropan-1-one] | +++ (+++ means <200 nM) |
| COC(=O)N1CC(Oc2cc(NC3CCC(F)(F)CC3)nc(-n3cc(C)c(CF)n3)n2)C1 [Compound 310, methyl 3-((6-((4,4-difluorocyclohexyl)amino)-2-(3-(fluoromethyl)-4-methyl-1H-pyrazol-1-yl)pyrimidin-4-yl)oxy)azetidine-1-carboxylate] | ++ (++ means 200 nM-1000 nM) |

same assay, conditions: whole-cell patch-clamp, HEK293 cells expressing SK2 channels; concentration that increases the basal current by 100%

| SC100 (μM) | SC100 | Compound |
| --- | --- | --- |
| + (+ means >1 uM) |  | Cc1cccc(-c2cc(CO)cc(NC3CCC(F)(F)CC3)n2)n1 [IN11111-063-P1, (6-((4,4-difluorocyclohexyl)amino)-6′-methyl-[2,2′-bipyridin]-4-yl)methanol] |
| ++ (++ means 200 nM-1000 nM) |  | Cc1ccn(-c2nc(NC3CCC(F)(F)CC3)cc(N3CCNC(=O)C3)n2)n1 [IN11106-091-P1] |
| + (+ means >1 uM) |  | Cc1cc(NC2CCC(F)(F)CC2)nc(-n2ccc(O)n2)n1 [NSSy7027, 1-(4-((4,4-difluorocyclohexyl)amino)-6-methylpyrimidin-2-yl)-1H-pyrazol-3-ol] |
| ++ (++ means 200 nM-1000 nM) |  | Cc1csc(-c2nc(NC3CCC(F)(F)CC3)cc(C(C)C)n2)n1 [IN11177-064-P1, N-(4,4-difluorocyclohexyl)-6-isopropyl-2-(4-methylthiazol-2-yl)pyrimidin-4-amine] |
| +++ (+++ means <200 nM) |  | Cc1ccc(OCc2cc(NC3CCC(F)(F)CC3)nc(-n3ccc(C)n3)c2)nn1 [NSSy5828, N-(4,4-difluorocyclohexyl)-6-(3-methyl-1H-pyrazol-1-yl)-4-(((6-methylpyridazin-3-yl)oxy)methyl)pyridin-2-amine] |
| ++ (++ means 200 nM-1000 nM) |  | Cc1ccn(-c2nc(NC3CCC(F)(F)CC3)c(F)c(N3CCOCC3)n2)n1 [IN11111-100-P1, N-(4,4-difluorocyclohexyl)-5-fluoro-2-(3-methyl-1H-pyrazol-1-yl)-6-morpholinopyrimidin-4-amine] |
| + (+ means >1 uM) |  | Cc1ccn(-c2cc(N(C)C)nc(NC3CCC(F)(F)CC3)n2)n1 [NSSy6677] |
| + (+ means >1 uM) |  | Cc1cc(C)n(-c2nc(NC3CCC(F)(F)CC3)cc([S+](C)[O-])n2)n1 (centres unmarked) [IN11067-062-P1] |
| + (+ means >1 uM) |  | CC(=O)N1CCN(c2cc(-n3ccc(O)n3)nc(NC3CCC(F)(F)CC3)n2)CC1 [NSSy6972, 1-(4-(2-((4,4-difluorocyclohexyl)amino)-6-(3-hydroxy-1H-pyrazol-1-yl)pyrimidin-4-yl)piperazin-1-yl) ethan-1-one] |
| ++ (++ means 200 nM-1000 nM) |  | Cc1csc(-c2nccc(NC3CCC(F)(F)CC3)n2)n1 [NSSy6056, N-(4,4-difluorocyclohexyl)-2-(4-methylthiazol-2-yl)pyrimidin-4-amine] |
| + (+ means >1 uM) |  | Cc1ccnn1-c1cc(C#N)cc(NC2CCC(F)(F)CC2)n1 [IN10967-061-P1, 2-((4,4-difluorocyclohexyl)amino)-6-(5-methyl-1H-pyrazol-1-yl)isonicotinonitrile] |
| ++ (++ means 200 nM-1000 nM) |  | COCc1cc(-n2ccc(C)n2)nc(NC2CCC(F)(F)CC2)n1 [NSSy6744, N-(4,4-difluorocyclohexyl)-4-(methoxymethyl)-6-(3-methyl-1H-pyrazol-1-yl)pyrimidin-2-amine] |
| ++ (++ means 200 nM-1000 nM) |  | Cc1ccn(-c2cc(CN3CCCC3=O)cc(NC3CCC(F)(F)CC3)n2)n1 [NSSy6019, 1-((2-((4,4-difluorocyclohexyl)amino)-6-(3-methyl-1H-pyrazol-1-yl)pyridin-4-yl)methyl)pyrrolidin-2-one] |
| ++ (++ means 200 nM-1000 nM) |  | Cc1ccn(-c2nc(NC3CCC(F)(F)CC3)cc(N(C)C3CC3)n2)n1 [NSSy6272] |
| +++ (+++ means <200 nM) |  | FC1(F)CCC(Nc2cc(N3CCOCC3)nc(-n3ccc(Br)n3)n2)CC1 [NSSy7021] |

Second part, the compound before the results:

| Compound | SC100 (μM) | SC100 |
| --- | --- | --- |
| Cc1csc(-c2nc(NC3CCC(F)(F)CC3)cc(-c3ccccc3)n2)n1 [IN11218-030-P1] | ++ (++ means 200 nM-1000 nM) |  |
| FC1(F)CCC(Nc2ccnc(-n3ccc(C4CC4)n3)n2)CC1 [NSSy6941, 2-(3-cyclopropyl-1H-pyrazol-1-yl)-N-(4,4-difluorocyclohexyl)pyrimidin-4-amine] | + (+ means >1 uM) |  |
| CCOC(=O)c1cn(-c2nc(NC3CCC(F)(F)CC3)cc(N3CCOCC3)n2)nc1C [IN11216-043-P1] | + (+ means >1 uM) |  |
| Cc1ccn(-c2nc(NC3CC(F)(F)C3)cc(N3CCOCC3)n2)n1 [IN11107-020-P1] | + (+ means >1 uM) |  |
| Cc1noc(-c2cc(N3CCOCC3)cc(NC3CCC(F)(F)CC3)n2)n1 [NSSy5957] | + (+ means >1 uM) |  |
| Cc1csc(-c2nc(NC3CCC(F)(F)CC3)cc(N3CCOC(CO)C3)n2)n1 (centres unmarked) [IN10881-025-P1] | ++ (++ means 200 nM-1000 nM) |  |
| COc1cc(NC2CCC(F)CC2)nc(-n2nc(C)cc2C)n1 (centres unmarked) [IN11055-079-P1] | + (+ means >1 uM) |  |
| Cc1ccn(-c2nc(NC3CCC(N(C)C)CC3)cc(N3CCOCC3)n2)n1 (centres unmarked) [NSSy6540] | + (+ means >1 uM) |  |
| FC1(F)CCC(Nc2cc(N3CCOCC3)nc(-c3ccco3)n2)CC1 [IN10971-060-P1, N-(4,4-difluorocyclohexyl)-2-(furan-2-yl)-6-morpholinopyrimidin-4-amine] | + (+ means >1 uM) |  |
| Cc1csc(-c2nc(NC3CC(F)(F)C3)cc(OC3CCOCC3)n2)n1 [IN11133-020-P1, N-(3,3-difluorocyclobutyl)-2-(4-methylthiazol-2-yl)-6-((tetrahydro-2H-pyran-4-yl)oxy) pyrimidin-4-amine] | + (+ means >1 uM) |  |
| FC1(F)CCC(Nc2cc(N3CCOCC3)nc(-n3ccc(-c4ccccc4)n3)n2)CC1 [NSSy7034] | + (+ means >1 uM) |  |
| FCc1ccn(-c2nc(NC3CCC(F)CC3)cc(N3CCOCC3)n2)n1 (centres unmarked) | + (+ means >1 uM) |  |
| Cc1csc(-c2nc(C(C)O)cc(N(C)C3CCCCC3)n2)n1 (centres unmarked) [IN10880-084-P1] | + (+ means >1 uM) |  |
| Cc1nccc(-c2cc(N3CCOCC3)cc(NC3CCC(F)(F)CC3)n2)n1 [IN11104-095-P1, N-(4,4-difluorocyclohexyl)-6-(2-methylpyrimidin-4-yl)-4-morpholinopyridin-2-amine] | + (+ means >1 uM) |  |
| Cc1csc(-c2nc(NC3CCC(F)(F)CC3)cc(N3CCS(=O)(=O)CC3)n2)n1 [NSSy6062] | +++ (+++ means <200 nM) |  |
| COC(=O)N1CCC(Oc2cc(NC3CCC(F)(F)CC3)nc(-c3nc(C)cs3)n2)C1 (centres unmarked) [IN10973-025-P1] |  | 1 µM |
| Cc1csc(-c2nc(NC3CCC(F)(F)CC3)cc(N(C)C3CC3)n2)n1 [IN10881-090-P1] | + (+ means >1 uM) |  |
| Cc1csc(-c2nc(NC3CCC(F)(F)CC3)cc(N3CCN(C)C(=O)C3)n2)n1 [NSSy6093] | ++ (++ means 200 nM-1000 nM) |  |
